We go through two compounds from patent US8674085B2, “2′-branched nucleosides and Flaviviridae mutation” (priority 2002, dated 2014).

For assay [1], the system named is BVDV (strain I-N-dIns) in persistently infected MDBK cells. The assay can be described thus: Passaging of persistently infected MDBK cells with 8 μM β-D-2′-CH3-riboC (isolation of resistant BVDV). Type of assay: cell-based, bovine viral diarrhea virus. On the procedure: (§1) Persistent BVDV infection was established in MDBK cell line (ATCC, Manassas, Va., Catalog #: CCL-22) by in vitro infection of naive cells with a noncytophatic (ncp) BVDV (strain I-N-dIns; Dr. R. Donis, U. of Nebraska, Lincoln, Nebr.). The multiplicity of infection (MOI) was 0.01. Cells were passaged twice per week (splitting ratio 1:15) until the stable high-level of infection (10^6-10^7 focus forming units (FFU) per mL) was achieved, as was determined by a focus assay. Next, the persistently infected cells were grown in 6-well culture plates with 8 μM or without β-D-2′-CH3-riboC (Idenix Pharmaceuticals). Cell cultures were passaged every three to four days by splitting with a ratio of 1:15 to 1:20. After eight passages, cell cultures grown in the presence of β-D-2′-CH3-riboC were expanded to T-75 culture flask, freeze/thawed twice, and used as a virus stock of β-D-2′-CH3-riboC-resistant BVDV for further characterization. The virus titers in cell cultures were monitored at the end of each passage by the virus focus assay.
To conduct the virus focus assay, MDBK cells were seeded onto 6-well plates containing 2×10^5 cells per well and grown at 37° C./5% CO2 for at least 5 hours before use. The test samples (culture supernatants combined with cell monolayers) were frozen/thawed twice, serially diluted by 10-fold in medium, and used to inoculate test cells in 6-well plates at 0.2 mL per well. The inoculum was removed after 1 hour of adsorption, and the cells were overlaid with 3 mL of 0.5% agarose in complete growth medium (1× DMEM (Cellgro), supplemented with 8% horse serum, penicillin, streptomycin, L-glutamine, sodium pyruvate, and 25 mM HEPES). After 3 days of incubation at 37° C./5% CO2, the plates were fixed for 1 hour with 3 mL of 7.4% formaldehyde in PBS, and washed with PBS. […] Virus titers were calculated in FFU/mL, using the following equation: TFFU/mL=N×5×D; where T is a virus titer in FFU/mL; N is a number of foci per well; and D is a dilution factor for the corresponding virus sample. […]

Assay [2] relates to BVDV I-N-dIns β-D-2′-CH3-riboC-R (β-D-2′-CH3-riboC-resistant BVDV). The assay can be described thus: BVDV virus yield reduction assay in de novo-infected MDBK cells. It is filed as cell-based, bovine viral diarrhea virus. On the procedure:
(§2) To conduct the virus focus assay, MDBK cells were seeded onto 6-well plates containing 2×10^5 cells per well and grown at 37° C./5% CO2 for at least 5 hours before use. The test samples (culture supernatants combined with cell monolayers) were frozen/thawed twice, serially diluted by 10-fold in medium, and used to inoculate test cells in 6-well plates at 0.2 mL per well. The inoculum was removed after 1 hour of adsorption, and the cells were overlaid with 3 mL of 0.5% agarose in complete growth medium (1× DMEM (Cellgro), supplemented with 8% horse serum, penicillin, streptomycin, L-glutamine, sodium pyruvate, and 25 mM HEPES). After 3 days of incubation at 37° C./5% CO2, the plates were fixed for 1 hour with 3 mL of 7.4% formaldehyde in PBS, and washed with PBS. The cell monolayers were permeabilized with 1 mL of PBS-0.25% Triton X-100 per well for 10 minutes, and incubated with 0.5 mL of goat anti-BVDV antiserum (VMDR, Inc.; diluted 1:1000 in PBS-0.25% Triton X-100) for 1 hour. The antiserum was then removed, and cell monolayers were washed with PBS (twice for 15 min) and incubated with 0.5 mL of peroxidase-conjugated donkey anti-goat antibody (diluted 1:1000 in PBS-0.25% Triton X-100) for another 1 hour. After the antibody was removed, the cell monolayers were washed with PBS (twice for 15 min), and incubated with 0.5 mL of diaminobenzidine (DAB) peroxidase substrate solution (Vector Laboratories) at room temperature until virus foci become visible (approximately 15 minutes). All incubations were carried out with rocking. The staining was stopped by washing with water and the plates were allowed to air dry. Virus titers were calculated in FFU/mL, using the following equation: TFFU/mL=N×5×D; where T is a virus titer in FFU/mL; N is a number of foci per well; and D is a dilution factor for the corresponding virus sample.
To conduct the virus yield reduction assay, MDBK cells were seeded onto 24-well plates (1×10^5 cells per well) and grown at 37° C./5% CO2 overnight. Cells were infected with BVDV at a multiplicity of infection of 0.1. After 1-hour adsorption, the inoculum was removed, and cells were washed with PBS and then overlaid with 1 mL of fresh growth medium, containing serial 2-fold dilutions of the test compound (0-32 μM for β-D-2′-CH3-riboC and 0-800 IU/mL for Intron®A). After incubation at 37° C./5% CO2 for 48 hours, the plates were frozen/thawed at −70° C. twice to lyse the cell cultures. The virus titer in the cell culture was quantified by focus assay as described above. […] The EC50, EC90 and EC4-log values were derived by curve fitting using XLFit software.

Assay [3] deals with BVDV strain I-N-dIns (wild type). The experiment in a line: microbe, parasite or virus in culture. Type of assay: cell-based, bovine viral diarrhea virus. On the procedure:
as §2
(§3) To conduct the virus yield reduction assay, MDBK cells were seeded onto 24-well plates (1×10^5 cells per well) and grown at 37° C./5% CO2 overnight. […] The virus titer in the cell culture was quantified by focus assay as described above. […]

The subject of assay [4] is BVDV (strain I-N-dIns) in persistently infected MDBK cells. The experiment in a line: Single or double treatment of persistently infected MDBK cells, virus titers by focus assay. It is filed as cell-based, bovine viral diarrhea virus. The note with it: for log value of the BVDV titer: 0 IU/mL Interferon alpha-2b; for reduction of viral titers: single treatment, 7 days. On the procedure: as §1, with “After eight passages, cell cultures grown in the presence of β-D-2′-CH3-riboC were expanded to T-75 culture flask, freeze/thawed twice, and used as a virus stock of β-D-2′-CH3-riboC-resistant BVDV for further characterization.” left out
as §2
The effect of Intron A, alone or in combination with β-D-2′-CH3-riboC, on the wild type BVDV was further studied in the persistently infected MDBK cells. In one experimental setting, the virus titers were determined after 7 days (two passages) of single or double treatment with several inhibitor concentrations.

Assay [5] concerns BVDV strain I-NADL. The experiment in a line: BVDV virus yield reduction assay. Type of assay: cell-based, bovine viral diarrhea virus. The note with it: cp. On the procedure:
as §2, with “sample. […]” for “sample.”
as §3

In assay [6] the test system is HCV. The note with it: ribavirin alone; cited from earlier work.
The mark [7] stands for this setting: Bovine viral diarrhea virus isolates and strains, MDBK, BVDV strain I-N-dIns β-D-2′-CH3-riboC-R, ncp, 48 hours.
[8] abbreviates: Bovine viral diarrhea virus isolates and strains.

As for `CC1(O)C(O)[C@@H](CO)O[C@H]1n1ccc(N)nc1=O` (stereo partly drawn) [β-D-2′-CH3-riboC], the “virus titer plateau after reappearance of virus” value in assay [1] (additional passaging in the presence of the inhibitor (virus reappeared at passage 3 to 5)) was 10^5 FFU/mL. Besides, the “virus detection in culture” value in assay [1] (after two passages) is listed as “no longer detectable”. Besides, in assay [1] (observed even after 28 days of treatment), the “difference in virus titers versus untreated culture” value was about 10 fold. Moreover, the EC4 log in assay [2] (BVDV strain I-N-dIns β-D-2′-CH3-riboC-R, ncp, 48 hours) is reported as over 32 μM; in assay [3] (BVDV strain I-N-dIns, ncp, concentration reducing viral titer by 99.99%, 48 hours) it was 7.14±1.26 μM; in assay [5], 8.22 ± 0.05 μM. The EC50 (as a rule, the concentration at which the effect is half-maximal) in assay [2] (setting [7]) is over 32000 nM; in assay [3] (Bovine viral diarrhea virus isolates and strains, MDBK, BVDV strain I-N-dIns, ncp, concentration reducing viral titer by 50%, 48 hours), 590 ± 120 nM; in assay [5] (setting [8]), 680 ± 80 nM. Besides, the values for the EC90 in assay [2] (setting [7]) and in assay [5] (setting [8]) were over 32000 nM and 1730 ± 110 nM, respectively. Also, the “fold more resistant to the inhibitor than the wild type virus” value in assay [2] (based on the EC50 values of the virus yield reduction assay) is reported as “at least 54 fold”. Besides, the “effect on the resistant virus yield” value in assay [2] (highest concentration tested (32 μM)) was “no effect”. For the same compound, in assay [3] (at 16 μM, wild type virus, below the detection limit), the virus titers is given as under 10 FFU/mL. In addition, the “log value of the BVDV titer” value was 5.10 log in assay [4] (2 μM β-D-2′-CH3-riboC, 7 days (two passages)); 4.55 log in assay [4] (4 μM β-D-2′-CH3-riboC, 7 days (two passages)); 0.40 log in assay [4] (8 μM β-D-2′-CH3-riboC, 7 days (two passages)). Besides, in assay [4] (8 μM β-D-2′-CH3-riboC alone, 7 days (two passages)), the “reduction of virus titer” value stood at 6.2 logs. Further, the “reduction of viral titers” value was 1.61 logs in assay [4] (2 μM β-D-2′-CH3-riboC) and 2.06 logs in assay [4] (4 μM β-D-2′-CH3-riboC).
For `NC(=O)c1ncn([C@@H]2O[C@H](CO)[C@@H](O)[C@H]2O)n1` [Ribavirin, 1-β-D-ribofuranosyl-1-1,2,4-triazole-3-carboxamide], the “serum amino transferase levels reduced to normal, share of patients” value in assay [6] is 40%.
